Measurements from PubChem BioAssay AID1963441 (Molecular Pharmacology Branch, DTP, NCI, 2024).
Where “and” joins values, the source holds several entries; their conditions need not be identical. Equal values may be shown once.

Test system: NCI-H1876 complex spheroid growth, % test/control
Assay: Anticancer human tumor NCI-H1876 cell line growth inhibition [Asc];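 further: compound exposure lasted 7 days starting three days after seeding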;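 on viability, T/C: 100% = DMSO vehicle control wells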
Details: for viability, T/C: stronger effect = lower value
How it was run: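 Complex solid-tumor spheroids incorporating human endothelial and mesenchymal stem cells received single agents or combinations over half-log dilution ranges anchored to clinical Cmax.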

[1] = curve of first compound, second compound 0.0316 µM
[2] = curve of first compound, second compound 0.1 µM
[3] = curve of first compound, second compound 0.316 µM
[4] = curve of first compound, second compound 1 µM

`Cc1nc(N2CCC3(CC2)COC(C)C3N)c(CO)nc1Sc1ccnc(N)c1Cl` (stereo unspecified) + Cc1c(S(C)(=O)=O)c(-c2cc(F)cc(N3CCN(c4ccc(NS(=O)(=O)c5ccc(NC(CCN6CCC(C(=O)OCCCP(=O)(O)O)CC6)CSc6ccccc6)c(S(=O)(=O)C(F)(F)F)c5)cc4)CC3)c2)c(-c2ccc(Cl)cc2)n1C(C)C gave an IC50 [1] of over 3 µM, an IC50 [2] of over 3 µM and an IC50 [3] of over 3 µM. The IC50 [4] was over 3 µM, the IC50 (curve of first compound, second compound 3.16 µM) was over 3 µM and the IC50 (curve of first compound, second compound 10 µM) was over 3 µM. For the same compound, the viability, T/C (second compound 0.0316 µM, first compound 0.00949 µM) was 106%, the viability, T/C (second compound 0.0316 µM, first compound 0.03 µM) was 86.8% and the viability, T/C (second compound 0.0316 µM, first compound 0.0949 µM) was 90.2%. For the same compound, the viability, T/C (second compound 0.0316 µM, first compound 0.3 µM) was 78.7%, the viability, T/C (second compound 0.0316 µM, first compound 0.949 µM) was 83.2% and the viability, T/C (second compound 0.0316 µM, first compound 3 µM) was 79.4%. The viability, T/C (second compound 0.1 µM, first compound 0.00949 µM) was 95.7%, the viability, T/C (second compound 0.1 µM, first compound 0.03 µM) was 101% and the viability, T/C (second compound 0.1 µM, first compound 0.0949 µM) was 93.7%. The viability, T/C (second compound 0.1 µM, first compound 0.3 µM) was 88%, the viability, T/C (second compound 0.1 µM, first compound 0.949 µM) was 84.2% and the viability, T/C (second compound 0.1 µM, first compound 3 µM) was 82.6%. It also gave a viability, T/C (second compound 0.316 µM, first compound 0.00949 µM) of 81.8%, a viability, T/C (second compound 0.316 µM, first compound 0.03 µM) of 89.7% and a viability, T/C (second compound 0.316 µM, first compound 0.0949 µM) of 92.2%. For the same compound, the viability, T/C (second compound 0.316 µM, first compound 0.3 µM) was 75.7%, the viability, T/C (second compound 0.316 µM, first compound 0.949 µM) was 88.4% and the viability, T/C (second compound 0.316 µM, first compound 3 µM) was 81.6%. The viability, T/C (second compound 1 µM, first compound 0.00949 µM) was 94.2%, the viability, T/C (second compound 1 µM, first compound 0.03 µM) was 92% and the viability, T/C (second compound 1 µM, first compound 0.0949 µM) was 81.5%. For the same compound, the viability, T/C (second compound 1 µM, first compound 0.3 µM) was 83.8%, the viability, T/C (second compound 1 µM, first compound 0.949 µM) was 93.7% and the viability, T/C (second compound 1 µM, first compound 3 µM) was 74.2%. The viability, T/C (second compound 3.16 µM, first compound 0.00949 µM) was 90.1%, the viability, T/C (second compound 3.16 µM, first compound 0.03 µM) was 88.7% and the viability, T/C (second compound 3.16 µM, first compound 0.0949 µM) was 83.7%. It also gave a viability, T/C (second compound 3.16 µM, first compound 0.3 µM) of 84.9%, a viability, T/C (second compound 3.16 µM, first compound 0.949 µM) of 83.3% and a viability, T/C (second compound 3.16 µM, first compound 3 µM) of 80.7%. The viability, T/C (second compound 10 µM, first compound 0.00949 µM) was 103%, the viability, T/C (second compound 10 µM, first compound 0.03 µM) was 88.8% and the viability, T/C (second compound 10 µM, first compound 0.0949 µM) was 85.3%. The viability, T/C (second compound 10 µM, first compound 0.3 µM) was 92.4%, the viability, T/C (second compound 10 µM, first compound 0.949 µM) was 96.7% and the viability, T/C (second compound 10 µM, first compound 3 µM) was 70.3%.

Work on `C=CC(=O)N1CCN(c2nc(=O)n(-c3c(C)ccnc3C(C)C)c3nc(-c4c(O)cccc4F)c(F)cc23)C(C)C1` (stereo unspecified) + CNC(C)C(=O)NC1CN(S(=O)(=O)c2cccc(S(=O)(=O)N3CCC4CCC(C(=O)NC(c5ccccc5)c5ccccc5)N4C(=O)C(NC(=O)C(C)NC)C3)c2)CCC2CCC(C(=O)NC(c3ccccc3)c3ccccc3)N2C1=O yielded an IC50 (curve of first compound, second compound 0.00316 µM) of over 10 µM, an IC50 (curve of first compound, second compound 0.01 µM) of over 10 µM and an IC50 [1] of over 10 µM. For the same compound, the IC50 [2] was over 10 µM, the IC50 [3] was over 10 µM and the IC50 [4] was over 10 µM. It also gave a viability, T/C (second compound 0.00316 µM, first compound 0.0316 µM) of 103%, a viability, T/C (second compound 0.00316 µM, first compound 0.1 µM) of 87.6% and a viability, T/C (second compound 0.00316 µM, first compound 0.316 µM) of 115%. For the same compound, the viability, T/C (second compound 0.00316 µM, first compound 1 µM) was 94.9%, the viability, T/C (second compound 0.00316 µM, first compound 3.16 µM) was 121% and the viability, T/C (second compound 0.00316 µM, first compound 10 µM) was 131%. For the same compound, the viability, T/C (second compound 0.01 µM, first compound 0.0316 µM) was 104%, the viability, T/C (second compound 0.01 µM, first compound 0.1 µM) was 99% and the viability, T/C (second compound 0.01 µM, first compound 0.316 µM) was 99.1%. It also gave a viability, T/C (second compound 0.01 µM, first compound 1 µM) of 99.3%, a viability, T/C (second compound 0.01 µM, first compound 3.16 µM) of 107% and a viability, T/C (second compound 0.01 µM, first compound 10 µM) of 111%. The viability, T/C (second compound 0.0316 µM, first compound 0.0316 µM) was 102%, the viability, T/C (second compound 0.0316 µM, first compound 0.1 µM) was 101% and the viability, T/C (second compound 0.0316 µM, first compound 0.316 µM) was 121%. The viability, T/C (second compound 0.0316 µM, first compound 1 µM) was 102%, the viability, T/C (second compound 0.0316 µM, first compound 3.16 µM) was 116% and the viability, T/C (second compound 0.0316 µM, first compound 10 µM) was 114%. It also gave a viability, T/C (second compound 0.1 µM, first compound 0.0316 µM) of 100%, a viability, T/C (second compound 0.1 µM, first compound 0.1 µM) of 106% and a viability, T/C (second compound 0.1 µM, first compound 0.316 µM) of 104%. The viability, T/C (second compound 0.1 µM, first compound 1 µM) was 106%, the viability, T/C (second compound 0.1 µM, first compound 3.16 µM) was 114% and the viability, T/C (second compound 0.1 µM, first compound 10 µM) was 106%. It also gave a viability, T/C (second compound 0.316 µM, first compound 0.0316 µM) of 114%, a viability, T/C (second compound 0.316 µM, first compound 0.1 µM) of 101% and a viability, T/C (second compound 0.316 µM, first compound 0.316 µM) of 100%. The viability, T/C (second compound 0.316 µM, first compound 1 µM) was 101%, the viability, T/C (second compound 0.316 µM, first compound 3.16 µM) was 115% and the viability, T/C (second compound 0.316 µM, first compound 10 µM) was 109%. It also gave a viability, T/C (second compound 1 µM, first compound 0.0316 µM) of 111%, a viability, T/C (second compound 1 µM, first compound 0.1 µM) of 91.9% and a viability, T/C (second compound 1 µM, first compound 0.316 µM) of 118%. It also gave a viability, T/C (second compound 1 µM, first compound 1 µM) of 113%, a viability, T/C (second compound 1 µM, first compound 3.16 µM) of 116% and a viability, T/C (second compound 1 µM, first compound 10 µM) of 117%.

With `C#Cc1c(F)ccc2cc(O)cc(-c3ncc4c(N5CC6CCC(C5)N6)nc(OCC56CCCN5CC(F)C6)nc4c3F)c12` (stereo unspecified) the viability, T/C (compound 0.0316 µM) was 104% (2×) and 97.2%, the viability, T/C (compound 0.1 µM) was 82.3% and 98.9% and 99.3% and the viability, T/C (compound 0.316 µM) was 112% and 115% and 94.7%. The viability, T/C (compound 1 µM) was 92.9% and 80.2% and 91%, the viability, T/C (compound 3.16 µM) was 90.2% and 97.4% and 102% and the viability, T/C (compound 10 µM) was 89.6% (2×) and 88.2%. It also gave an IC50 (curve of compound) of over 10 µM.
